Measurements taken from publication PMC3743770, “A Selective HDAC 1/2 Inhibitor Modulates Chromatin and Gene Expression in Brain and Alters Mouse Behavior in Two Mood-Related Tests” (PLoS ONE, 2013).
Read-outs that look alike come from different tables or passages of the source. Values belong to the compound of their own block, whether it stands above or below them.

How the values were obtained:
C57BL/6 mice [1] = conditions: 85 mg/kg i.p.; cited from earlier work
[2] = tested on: transcripts in whole brain; conditions: chronic lithium, ref McQuillin et al, 2007; cited from earlier work
mice = assay: Tolerability of chronic treatment; assay type: in vivo; conditions: Cpd-60 45 mg/kg i.p., SAHA 25 mg/kg i.p.
HDAC9 = HDAC9 (Homo sapiens, UniProt Q9UKV0); assay: HDAC inhibition assay, recombinant enzyme, Caliper EZ reader
HDAC9, sequence (Q9UKV0 whole entry): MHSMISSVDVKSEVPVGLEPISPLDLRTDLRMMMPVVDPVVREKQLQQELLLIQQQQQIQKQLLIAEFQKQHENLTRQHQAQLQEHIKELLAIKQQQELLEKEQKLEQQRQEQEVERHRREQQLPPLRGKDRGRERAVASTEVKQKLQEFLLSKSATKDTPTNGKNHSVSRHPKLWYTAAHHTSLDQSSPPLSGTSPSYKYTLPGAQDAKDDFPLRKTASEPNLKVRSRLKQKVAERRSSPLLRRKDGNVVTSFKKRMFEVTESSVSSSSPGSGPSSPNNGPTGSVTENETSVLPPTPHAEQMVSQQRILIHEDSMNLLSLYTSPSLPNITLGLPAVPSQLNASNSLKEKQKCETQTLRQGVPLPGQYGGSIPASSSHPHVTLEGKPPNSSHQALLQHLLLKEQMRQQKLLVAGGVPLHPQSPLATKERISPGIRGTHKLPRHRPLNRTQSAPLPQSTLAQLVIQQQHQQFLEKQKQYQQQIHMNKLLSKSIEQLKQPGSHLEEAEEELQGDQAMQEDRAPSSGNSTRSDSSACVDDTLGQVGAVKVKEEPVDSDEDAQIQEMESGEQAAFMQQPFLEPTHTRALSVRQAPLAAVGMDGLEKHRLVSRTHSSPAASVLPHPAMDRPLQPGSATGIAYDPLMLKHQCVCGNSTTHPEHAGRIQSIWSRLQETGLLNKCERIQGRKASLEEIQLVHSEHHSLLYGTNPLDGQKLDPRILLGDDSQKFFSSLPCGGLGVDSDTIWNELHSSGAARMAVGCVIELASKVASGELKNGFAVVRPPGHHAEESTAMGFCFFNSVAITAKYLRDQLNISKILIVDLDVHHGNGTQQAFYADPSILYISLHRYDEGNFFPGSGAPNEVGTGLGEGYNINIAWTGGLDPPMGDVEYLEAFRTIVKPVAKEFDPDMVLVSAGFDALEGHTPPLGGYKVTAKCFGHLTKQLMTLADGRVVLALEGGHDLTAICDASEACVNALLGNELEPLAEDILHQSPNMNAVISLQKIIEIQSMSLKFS

[3] = tested on: H4K12 acetylation in HEK293 cells; assay: H4K12 acetylation western blot, constant exposure and washout; assay type: cell-based, human; conditions: for H4K12ac levels after washout: HEK293, 20 µM 24 hr, then 6 hr after media change; for H4K12ac levels, constant exposure: HEK293, 20 µM for 24 hr
Procedure: Frozen mouse brains (n = 6/treatment group) were rapidly dissected at 4°C to isolate frontal cortex (including PFC), ventral striatum (including NAc), and HIP for protein extraction. […] Solutions for protein extraction were supplemented with 5 mM sodium butyrate to suppress residual HDAC activity. […] Densitometric quantification was performed using Image J software (NIH) and statistical comparison to vehicle-treated controls by two-tailed t-test.
Protein was extracted by douncing in suspension buffer: 0.1 M NaCl, 0.01 M TrisCl (ph7.6), 0.001 M EDTA (pH 8.0), then immediately diluted with an equal volume of 2x SDS-gel loading buffer: 100 mM TrisCl (ph 6.8), 4% SDS, 20% glycerol, 200 mM DTT. […] Media was aspirated and cells collected for Western blotting using 40 μL buffers as detailed above for mouse brain. Solutions for protein extraction were supplemented with 5 mM sodium butyrate to suppress residual HDAC activity. Samples were denatured at 95°C for 5 min, passaged 3x through a 25 gauge needle and centrifuged at 10,000g for 10 min at room temperature and protein quantification performed using a BCA protein assay kit #23225 (Pierce). […] Chemiluminescent detection of immunoreactivity was performed using SuperSignal West Dura Substrate #34076 (Pierce) with subsequent densitometric quantification using Image J software (NIH) and statistical comparison to vehicle-treated controls by two-tailed t-test.

[4] = tested on: transcripts in PFC, NAc and HIP; assay: Whole genome transcript profiling of brain regions (microarray); assay type: in vivo, mouse; conditions: for overlap with the 121 transcripts modulated by lithium: Gene Set Enrichment Analysis; for transcripts altered across the three regions: PFC, NAc, HIP compiled, ≥[…] vs vehicle; for transcripts up- or down-regulated, summed across the three brain regions: Tukey's HSD p<0.05 vs vehicle
Procedure: Frozen mouse brains (n = 6/treatment group) were rapidly dissected at 4°C to isolate medial prefrontal cortex (PFC), nucleus accumbens (NAc) and hippocampus (HIP) for mRNA extraction. Whole genome transcript profiling was performed using the Illumina MouseWG-6 Expression BeadChip with subsequent validation by quantitative real-time PCR (qPCR) and is available online at the NCBI Gene Expression Omnibus repository (GSE47452).
Frozen mouse brains (n = 6/ treatment group) were rapidly dissected at 4°C, isolating medial prefrontal cortex, nucleus accumbens and hippocampus. […] For microarray experiments on Illumina MouseWG-6 BeadChips, RNA samples were pooled from two biological replicates such that the total number of samples was 27 (3 treatment groups x 3 brain regions x 3 RNA pools representing two mice per pool). All microarray analysis and gene set analysis (GSA) was performed using GeneSpring software (v.11.5.1) with raw signals adjusted using quantile normalization and baseline transformation with the median signal in all samples set to zero. Data were included in subsequent analyses if the normalized signal, thresholded at 0.8, was ‘present’ for 3 of 3 replicates for like treatment and tissue groups. […] Primer sequences for qPCR validation were designed using NCBI PRIMER-BLAST (Table S2).

[5] = Positron emission tomography of carbon-11 labeled Cpd-60; assay type: in vivo, baboon (Papio anubis); conditions: intravenous, preliminary unpublished data
Text: Male 11 wk old C57BL/6 mice were utilized for pharmacokinetic, behavioral and biochemical analyses. One female baboon (Papio Anubis) was used to determine brain uptake and pharmacokinetics of Cpd-60. […] Non-human primate housing conditions and feeding regimens were coordinated by the professional investigative staff at the Brookhaven Laboratory Animal Facility which included social housing in cages appropriate for the physical and behavioral health of the individual animal. Animals were fed a 3x per day with additional nutritional supplements provided as prescribed by the attending veterinarian. Environmental enrichment included audio, video and tactile elements (e.g. listening to the radio, watching television, playing with toys and human interaction) and were provided on a daily basis to promote psychological well-being. All procedures were performed without compromising animal welfare and all efforts were made to minimize suffering including adequate use of anesthesia (ketamine, isoflurane) in the baboon imaging experiment. The baboon was not sacrificed following the study and further effort was taken to minimize suffering by allowing an interval of at least one month between subsequent imaging studies in the same animal.
C57BL/6 male mice were purchased at 10 weeks of age from The Jackson Laboratory and Taconic Farms. […]

HDAC7 = molecular target: T1, HDAC7 (Homo sapiens, UniProt Q8WUI4); assay: HDAC inhibition assay, recombinant enzyme, Caliper EZ reader
T1 sequence (Q8WUI4 1-952): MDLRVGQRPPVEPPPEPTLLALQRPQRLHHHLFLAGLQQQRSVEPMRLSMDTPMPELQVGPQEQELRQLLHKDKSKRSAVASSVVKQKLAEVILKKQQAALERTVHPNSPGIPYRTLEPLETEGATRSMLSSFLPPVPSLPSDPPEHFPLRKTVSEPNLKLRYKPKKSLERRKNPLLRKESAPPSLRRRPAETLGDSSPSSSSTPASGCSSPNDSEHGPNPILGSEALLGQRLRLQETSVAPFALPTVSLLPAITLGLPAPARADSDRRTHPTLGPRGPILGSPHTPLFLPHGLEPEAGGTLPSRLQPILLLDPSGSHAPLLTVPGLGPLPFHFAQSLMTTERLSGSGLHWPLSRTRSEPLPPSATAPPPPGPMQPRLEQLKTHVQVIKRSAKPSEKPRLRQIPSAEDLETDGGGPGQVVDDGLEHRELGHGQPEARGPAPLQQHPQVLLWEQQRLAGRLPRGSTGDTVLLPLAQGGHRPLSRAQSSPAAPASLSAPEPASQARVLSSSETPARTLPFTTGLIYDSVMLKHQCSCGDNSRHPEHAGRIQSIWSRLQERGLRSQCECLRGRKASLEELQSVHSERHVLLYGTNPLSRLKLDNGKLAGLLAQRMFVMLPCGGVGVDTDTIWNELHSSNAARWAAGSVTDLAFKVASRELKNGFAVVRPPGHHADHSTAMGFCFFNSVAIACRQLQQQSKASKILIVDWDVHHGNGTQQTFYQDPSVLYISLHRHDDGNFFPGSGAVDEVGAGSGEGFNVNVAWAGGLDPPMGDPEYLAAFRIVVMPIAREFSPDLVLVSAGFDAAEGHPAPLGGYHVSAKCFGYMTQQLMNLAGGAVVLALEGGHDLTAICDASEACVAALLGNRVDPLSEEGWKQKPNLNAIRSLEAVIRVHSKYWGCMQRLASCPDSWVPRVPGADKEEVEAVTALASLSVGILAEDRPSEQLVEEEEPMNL

HDAC8 = molecular target: T2, HDAC8 (Homo sapiens, UniProt Q9BY41); assay: as above
T2 sequence (Q9BY41 1-377): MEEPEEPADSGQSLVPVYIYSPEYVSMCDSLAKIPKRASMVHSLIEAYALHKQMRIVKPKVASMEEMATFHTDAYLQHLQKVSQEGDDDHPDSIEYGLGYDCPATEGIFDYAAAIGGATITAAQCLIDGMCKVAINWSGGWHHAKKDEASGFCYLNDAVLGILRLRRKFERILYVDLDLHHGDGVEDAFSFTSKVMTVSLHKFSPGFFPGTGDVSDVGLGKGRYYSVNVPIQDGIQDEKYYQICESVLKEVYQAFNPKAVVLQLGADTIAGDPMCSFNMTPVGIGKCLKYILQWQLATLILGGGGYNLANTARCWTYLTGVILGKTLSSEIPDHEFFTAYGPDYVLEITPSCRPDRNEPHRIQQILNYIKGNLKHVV

[6] = tested on: histone H4K12 acetylation in cultured primary mouse neuronal cells; assay: Mouse primary neuronal histone acetylation assay; conditions: Neuron, 24 h, read-out: EC50 for H4K12 acetylation
C57BL/6 mice [7] = assay: Forced-swim test (FST); assay type: in vivo, mouse
Procedure: (§1) Compounds were administered between 9 am and 1 pm for 7 days prior to the start of behavioral testing, and after completion of each daily session during behavioral testing. Testing was performed 18–24 hr after the previous treatment to avoid transient effects. Amphetamine-induced hyperlocomotion (AIH) was performed as previously described on days 7–9 of treatment with activity measured before and after amphetamine challenge (AccuScan Instruments, Inc.). Forced-swim test (FST) behavior was performed as previously described on day 10 of treatment and total time spent immobile during a 6 min session was scored automatically (Ethovision; Noldus). Treatment effects were analyzed by one way analysis of variance (ANOVA) with post hoc analysis using Least Squared Differences test (SPSS v18.0 IBM).

[8] = tested on: H4K12ac around TSS of Agxt2l1, Sgk1, Sult1a1, Tsc22d3; assay: Chromatin immunoprecipitation (H4K12ac) of nucleus accumbens with qPCR; conditions: NAc; 0.5 kB downstream of each TSS; 45 mg/kg i.p. 10 days
[9] = tested on: 80 common CNS targets including receptors, channels and transporters; assay: CNS target binding assays (Cerep High-Throughput Profile P-3); conditions: 10 µM, duplicate; significance 50% inhibition of control binding
Text: The specific ligand binding to the receptors is defined as the difference between the total binding and the nonspecific binding determined in the presence of an excess of unlabelled ligand. […] The experiment was accepted in accordance with Cerep’s validation Standard Operating Procedure.

HDAC4 = HDAC4 (Homo sapiens, UniProt P56524); assay: biochemical
HDAC4, sequence (P56524 whole entry): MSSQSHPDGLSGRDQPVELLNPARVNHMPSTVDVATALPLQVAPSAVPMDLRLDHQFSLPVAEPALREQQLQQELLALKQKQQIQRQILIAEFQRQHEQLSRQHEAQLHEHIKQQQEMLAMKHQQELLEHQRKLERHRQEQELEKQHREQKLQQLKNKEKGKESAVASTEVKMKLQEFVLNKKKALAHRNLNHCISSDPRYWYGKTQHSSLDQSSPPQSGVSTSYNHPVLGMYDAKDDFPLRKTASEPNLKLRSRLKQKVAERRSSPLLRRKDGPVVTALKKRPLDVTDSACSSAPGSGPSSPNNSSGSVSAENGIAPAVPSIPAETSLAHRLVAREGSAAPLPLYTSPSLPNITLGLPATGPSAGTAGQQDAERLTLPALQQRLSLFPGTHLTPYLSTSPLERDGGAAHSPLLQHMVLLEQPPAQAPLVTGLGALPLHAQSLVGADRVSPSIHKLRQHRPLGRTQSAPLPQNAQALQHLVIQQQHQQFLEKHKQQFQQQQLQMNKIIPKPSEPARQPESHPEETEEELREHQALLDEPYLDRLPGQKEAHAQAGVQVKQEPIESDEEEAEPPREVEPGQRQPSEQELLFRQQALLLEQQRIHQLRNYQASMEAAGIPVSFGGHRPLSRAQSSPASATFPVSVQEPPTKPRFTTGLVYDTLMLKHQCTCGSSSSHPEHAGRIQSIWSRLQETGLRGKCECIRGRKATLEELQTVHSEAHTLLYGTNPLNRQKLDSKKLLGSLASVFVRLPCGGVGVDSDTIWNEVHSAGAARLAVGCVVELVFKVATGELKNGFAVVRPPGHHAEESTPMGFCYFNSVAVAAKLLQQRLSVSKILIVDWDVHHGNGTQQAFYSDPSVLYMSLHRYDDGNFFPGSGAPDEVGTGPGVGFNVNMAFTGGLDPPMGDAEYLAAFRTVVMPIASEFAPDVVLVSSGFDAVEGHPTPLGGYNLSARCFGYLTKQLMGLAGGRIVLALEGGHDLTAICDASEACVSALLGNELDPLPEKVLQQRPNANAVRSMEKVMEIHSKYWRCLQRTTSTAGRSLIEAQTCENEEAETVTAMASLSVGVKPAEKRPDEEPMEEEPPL

HDAC5 = HDAC5 (Homo sapiens, UniProt Q9UQL6); assay: HDAC inhibition assay, recombinant enzyme, Caliper EZ reader
HDAC5, sequence (Q9UQL6 whole entry): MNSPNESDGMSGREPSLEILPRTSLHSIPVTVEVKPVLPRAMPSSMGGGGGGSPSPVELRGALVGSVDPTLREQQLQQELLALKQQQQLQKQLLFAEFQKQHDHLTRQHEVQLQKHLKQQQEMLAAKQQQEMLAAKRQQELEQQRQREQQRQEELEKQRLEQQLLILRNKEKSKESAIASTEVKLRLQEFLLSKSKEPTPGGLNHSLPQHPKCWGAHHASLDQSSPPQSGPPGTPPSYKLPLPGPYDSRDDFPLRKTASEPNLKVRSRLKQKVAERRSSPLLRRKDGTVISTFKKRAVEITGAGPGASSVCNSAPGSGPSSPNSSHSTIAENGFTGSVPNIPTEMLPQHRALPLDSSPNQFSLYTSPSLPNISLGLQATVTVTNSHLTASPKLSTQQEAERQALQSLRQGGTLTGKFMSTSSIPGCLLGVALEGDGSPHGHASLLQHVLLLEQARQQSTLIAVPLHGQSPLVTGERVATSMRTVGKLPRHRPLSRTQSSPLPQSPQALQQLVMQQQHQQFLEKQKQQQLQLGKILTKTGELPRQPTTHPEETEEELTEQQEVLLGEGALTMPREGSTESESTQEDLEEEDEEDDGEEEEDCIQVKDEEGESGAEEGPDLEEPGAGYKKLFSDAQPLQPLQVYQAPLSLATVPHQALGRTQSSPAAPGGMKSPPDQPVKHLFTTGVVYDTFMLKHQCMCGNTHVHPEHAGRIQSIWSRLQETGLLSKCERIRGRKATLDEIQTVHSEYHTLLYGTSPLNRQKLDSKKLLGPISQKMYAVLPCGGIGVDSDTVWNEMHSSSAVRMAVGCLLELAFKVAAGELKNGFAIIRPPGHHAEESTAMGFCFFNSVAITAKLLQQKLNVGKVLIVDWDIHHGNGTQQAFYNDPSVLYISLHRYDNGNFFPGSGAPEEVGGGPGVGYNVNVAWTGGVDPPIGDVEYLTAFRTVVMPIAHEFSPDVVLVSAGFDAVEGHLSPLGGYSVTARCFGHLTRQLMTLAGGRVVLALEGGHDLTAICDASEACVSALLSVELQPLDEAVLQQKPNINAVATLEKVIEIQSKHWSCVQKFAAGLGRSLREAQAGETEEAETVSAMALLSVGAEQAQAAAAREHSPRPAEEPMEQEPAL

C57BL/6 mice [10] = assay: Amphetamine-induced hyperlocomotion (AIH); assay type: in vivo, mouse; conditions: chronic i.p.; Cpd-60 45 mg/kg, SAHA 25 mg/kg; vs vehicle; amphetamine 3.5 mg/kg
Procedure: as §1

[11] = Mouse brain pharmacokinetics; assay type: in vivo; conditions: for half-life: read-out: brain T1/2 (converted)
Procedure: Plasma, brain samples, and dose formulations, were analyzed as previously described using high performance liquid chromatography/mass spectrometry. Data acquisition and control system were created using Analyst 1.4 software (ABI Inc, Canada).

[12] = chronic i.p., day 10, Cpd-60 45 mg/kg, SAHA 25 mg/kg, vs vehicle

Compound: [Li] [lithium]
reduction in immobility time (C57BL/6 mice [1]): 48%
Agxt2l1 fold change [2]: 2.73 fold change
Igfbp5 fold change [2]: -1.56 fold change
Mef2c fold change [2]: -1.22 fold change
Mfsd2 fold change [2]: 2.65 fold change
Nrxn1 fold change [2]: -1.18 fold change
Per2 fold change [2]: 2.47 fold change
Qdpr fold change [2]: -1.46 fold change
Sgk1 fold change [2]: 2.85 fold change
Sult1a1 fold change [2]: 6.28 fold change
Tsc22d3 fold change [2]: 1.95 fold change
Usp54 fold change [2]: 1.57 fold change

Compound: CC(=O)Nc1ccc(C(=O)Nc2cc(-c3cccs3)ccc2N)cc1 [Cpd-60]
tolerability of treatment for longer than 10 days (mice): not well tolerated
IC50 (HDAC9): > 30 µM
H4K12ac levels after washout [3]: persistent increases in H4K12ac
H4K12ac levels, constant exposure [3]: elevated H4K12ac levels
overlap with the 121 transcripts modulated by lithium [4]: 11
transcripts altered across the three regions [4]: 390
transcripts up- or down-regulated, summed across the three brain regions [4]: 1609
brain uptake by PET [5]: reaches the brain, albeit at low levels relative to plasma
IC50 (HDAC7): > 30 µM
IC50 (HDAC8): > 30 µM
EC50 [6]: 7.2 µM
reduction in immobility time (C57BL/6 mice [7]; [12]): 67%
H4K12ac levels downstream of the TSS [8]: lower than vehicle-treated controls
binding to 80 CNS targets [9]: no significant binding to any of the targets
IC50 (HDAC4): > 30 µM
IC50 (HDAC5): > 30 µM
reduction of amphetamine-induced hyperlocomotion (C57BL/6 mice [10]): 36%
concentration at 8 hr ([11]; C57BL/6, mouse, brain, intraperitoneal, 45 mg/kg, systemic treatment, read-out: brain concentration maintained for at least 8 hr): > 0.1 µM
Cmax ([11]; C57BL/6, mouse, brain, ip, 45 mg/kg, read-out: brain maximum concentration (Cmax)): 0.83 µM
half-life ([11]; C57BL/6, mouse, brain, ip): 6.44 h
time to peak brain concentration ([11]; systemic treatment): ≤ 5 min

Compound: CNCCCN1c2ccccc2CCc2ccccc21 [desipramine]
reduction in immobility time (C57BL/6 mice [7]; 15 mg/kg i.p., n = 16/group, data not shown): 55%

half-life ([11]; C57BL/6, mouse, brain, ip): 0.44 h
time until cleared from the brain ([11]; systemic treatment): ≤ 2 h
Compound: O=C(CCCCCCC(=O)Nc1ccccc1)NO [SAHA, suberoylanilide hydroxamic acid]
H4K12ac levels after washout [3]: only Cpd-60-treated cells showed persistent increases in H4K12ac
H4K12ac levels, constant exposure [3]: elevated H4K12ac levels
overlap with the 121 transcripts modulated by lithium [4]: no significant overlap
transcripts altered across the three regions [4]: 288
transcripts up- or down-regulated, summed across the three brain regions [4]: 1530
downregulated transcripts HIP (total) ([4]; ≥[…], post hoc p<0.05): 148
downregulated transcripts NAc (total) ([4]; ≥[…], post hoc p<0.05): 16
downregulated transcripts PFC (total) ([4]; ≥[…], post hoc p<0.05): 5
upregulated transcripts HIP (total) ([4]; ≥[…], post hoc p<0.05): 104
upregulated transcripts NAc (total) ([4]; ≥[…], post hoc p<0.05): 5
upregulated transcripts PFC (total) ([4]; ≥[…], post hoc p<0.05): 7
reduction in immobility time (C57BL/6 mice [7]; [12]): did not influence mouse behavior in either paradigm
reduction of amphetamine-induced hyperlocomotion (C57BL/6 mice [10]): no effect
